From patent US9775797B2, “Personal care composition” (Conopco, Inc., priority 2012, dated 2017)

System: HaCaT and HeMnDP co-culture
Test: coculture melanin content assay (after Calcein-AM viability check)
Type: cell-based
Settings: melanin content vs control, 72 hrs incubation
Description: The samples at various concentrations were analysed for skin lightening efficacy using the coculture melanin content assay, the details of which are given below: Set up of Co-cultures: • 1. 4*10^4 HaCaT and 4×10^4 […] (1:1) per well (single wells/treatment) in 12-well Nunc plates on Day 0 are seeded so as to establish a co-culture system. • 2. The volume of media per well should be 1 mL of a 1:1 mix of Melanocyte Growth Media and Keratinocyte Growth Media • 3. 24 hrs later, fresh media containing actives are added. Again 1 mL of a 1:1 mix of MGM and KGM for active addition are used. • 4. Plates are incubated for 72 hrs in a 37° C. CO2 incubator. • 5. […] In the meantime, the fluorescence is measured (excitation at 490 nm and emission at 520 nm) using TECAN instrument after 30 min of dye incubation. • 5. After reading the plate, the buffer containing Calcein is removed and melanin content assay is then carried out. […] After the reading for Calcein-AM is taken, the buffer containing Calcein-AM is removed from all the wells. • 2. […] The absorbance is measured in the Lab-5 Tecan instrument at 405 nm. • 6. For non-cytotoxic concentrations (based on Calcein cut-off of ±15% of control), the average MCA is calculated and reported as MCA as percentage of the control sample. The % inhibition is then calculated. […]

Structure (SMILES) | % Inhibition (sample concentration 0.5 ppm) | inhibition at 14.2 ppm (Homo sapiens, HaCaT, sample concentration 14.2 ppm)
O=C1C[C@@H](c2ccc(O)c(O[C@@H]3O[C@H](CO)[C@@H](O)[C@H](O)[C@H]3O)c2)Oc2cc(O[C@@H]3O[C@H](CO)[C@@H](O)[C@H](O)[C@H]3O)ccc21 [Butrin, butrin] | 31% | –
O=c1cc(CO)occ1O [Example 3, Kojic Acid] | – | 22%
